Assay results reported in article PMC3953731 (FEBS Open Bio, 2014).
Values joined by “and” are separate entries in the source; they are usually repeats but may differ in a detail not shown here. Identical values can stand only once.

T1: Ima5p (Saccharomyces cerevisiae, UniProt P40884)
T1 sequence (P40884 1-581): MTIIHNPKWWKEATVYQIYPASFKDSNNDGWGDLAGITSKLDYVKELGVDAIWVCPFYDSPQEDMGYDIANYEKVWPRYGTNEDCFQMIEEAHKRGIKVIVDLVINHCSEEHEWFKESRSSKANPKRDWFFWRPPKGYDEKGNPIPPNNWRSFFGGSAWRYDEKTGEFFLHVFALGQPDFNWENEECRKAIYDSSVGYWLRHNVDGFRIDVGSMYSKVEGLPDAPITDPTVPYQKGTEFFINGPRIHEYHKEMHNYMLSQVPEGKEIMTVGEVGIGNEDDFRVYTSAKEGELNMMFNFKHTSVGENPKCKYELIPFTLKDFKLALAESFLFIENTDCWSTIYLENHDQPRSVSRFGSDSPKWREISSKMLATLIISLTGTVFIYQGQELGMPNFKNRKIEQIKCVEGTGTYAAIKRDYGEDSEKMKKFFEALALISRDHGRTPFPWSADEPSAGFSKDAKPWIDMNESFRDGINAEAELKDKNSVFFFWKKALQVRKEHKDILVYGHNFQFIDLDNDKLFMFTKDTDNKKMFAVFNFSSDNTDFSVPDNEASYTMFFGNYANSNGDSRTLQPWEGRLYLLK


Legend:
Ima1p = Ima1p (Saccharomyces cerevisiae, UniProt P53051); test: Substrate specificity of purified isomaltase; type: biochemical; details: 100 mM substrate (pNPG 5 mM), pH 7, 30 °C; for Specific activities: citrate–potassium phosphate buffer
Ima2p = Ima2p (Saccharomyces cerevisiae, UniProt Q08295); test: Substrate specificity of purified isomaltase; type: biochemical; details: 100 mM substrate (pNPG 5 mM), pH 7, 30 °C; for Specific activities: citrate–potassium phosphate buffer
Ima3p = Ima3p (Saccharomyces cerevisiae, UniProt P0CW40); test: Substrate specificity of purified isomaltase; type: biochemical; details: 100 mM substrate (pNPG 5 mM), pH 7, 30 °C; for Specific activities: citrate–potassium phosphate buffer
Ima5p = target: T1, Ima5p; test: Substrate specificity of purified isomaltase; type: biochemical; details: 100 mM substrate (pNPG 5 mM), pH 7, 30 °C; for Specific activities: citrate–potassium phosphate buffer
[1] = Thermostability assay: time-dependent heat inactivation, half-life; type: biochemical, Saccharomyces cerevisiae; details: pNPG 5 mM, mean ± 2 SEM
[2] = Melting temperature by differential scanning fluorimetry; type: physicochemical, Saccharomyces cerevisiae; details: for Tm: mean ± 2 SEM; for decrease of Tm on increase by one pH unit (pH 8): pH 7 to pH 8

Sequence of Ima1p (P53051 whole entry): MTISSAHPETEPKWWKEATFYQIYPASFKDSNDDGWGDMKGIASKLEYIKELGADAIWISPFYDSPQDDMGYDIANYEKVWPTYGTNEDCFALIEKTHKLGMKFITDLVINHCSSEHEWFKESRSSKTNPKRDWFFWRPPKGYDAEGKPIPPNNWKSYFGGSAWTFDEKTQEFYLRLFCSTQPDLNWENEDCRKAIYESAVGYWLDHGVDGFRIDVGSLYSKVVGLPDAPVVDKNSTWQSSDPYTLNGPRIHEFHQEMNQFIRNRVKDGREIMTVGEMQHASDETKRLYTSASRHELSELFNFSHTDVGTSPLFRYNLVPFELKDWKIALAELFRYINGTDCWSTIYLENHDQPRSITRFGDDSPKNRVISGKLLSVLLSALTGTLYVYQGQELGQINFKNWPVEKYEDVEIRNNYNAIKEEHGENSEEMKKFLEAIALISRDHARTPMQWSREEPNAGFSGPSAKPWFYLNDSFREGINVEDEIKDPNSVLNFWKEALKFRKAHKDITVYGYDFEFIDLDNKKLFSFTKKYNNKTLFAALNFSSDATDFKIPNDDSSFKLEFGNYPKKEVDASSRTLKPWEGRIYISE
Sequence of Ima3p (P0CW40 whole entry): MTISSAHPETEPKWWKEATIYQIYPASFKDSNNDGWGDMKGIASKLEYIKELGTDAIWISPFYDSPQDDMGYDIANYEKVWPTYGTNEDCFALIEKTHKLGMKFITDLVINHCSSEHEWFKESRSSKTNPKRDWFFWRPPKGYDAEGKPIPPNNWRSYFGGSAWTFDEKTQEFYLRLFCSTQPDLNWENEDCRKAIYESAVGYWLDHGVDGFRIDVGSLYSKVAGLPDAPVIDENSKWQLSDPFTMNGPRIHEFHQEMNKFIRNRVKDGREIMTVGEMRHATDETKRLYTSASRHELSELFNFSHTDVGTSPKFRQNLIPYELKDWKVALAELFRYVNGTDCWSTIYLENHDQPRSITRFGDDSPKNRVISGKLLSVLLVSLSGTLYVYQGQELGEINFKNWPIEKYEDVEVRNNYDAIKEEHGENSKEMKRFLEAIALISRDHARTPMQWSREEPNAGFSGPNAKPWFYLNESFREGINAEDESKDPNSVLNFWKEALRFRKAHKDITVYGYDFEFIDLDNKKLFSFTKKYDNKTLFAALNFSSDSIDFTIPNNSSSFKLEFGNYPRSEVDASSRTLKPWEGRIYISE

Molecule	Specific activities (Ima1p)	relative activity, velocity on isomaltose set to 100 (Ima1p)	Specific activities (Ima2p)	relative activity, velocity on isomaltose set to 100 (Ima2p)	Specific activities (Ima3p)	Specific activities (Ima5p)	relative activity, velocity on isomaltose set to 100 (Ima5p)	t1/2 ([1]; 37 °C)	t1/2 ([1]; 40 °C)	Tm ([2]; pH 7, DSF)	further results
OC[C@H]1O[C@H](O[C@@H]2[C@@H](O)[C@H](O)[C@@H](CO)O[C@@H]2O)[C@H](O)[C@@H](O)[C@@H]1O [Kojibiose, O-α-D-Glucosyl-(1→2)-α-D-glucose]	7.7 µmol/min/mg	13%	6.9 µmol/min/mg	13%	0 µmol/min/mg	2.5 µmol/min/mg	4%	–	–	–	–
OC[C@H]1O[C@H](O[C@H]2[C@H](O)[C@@H](O)[C@@H](O[C@H]3[C@H](O)[C@@H](O)C(O)O[C@@H]3CO)O[C@@H]2CO)[C@H](O)[C@@H](O)[C@@H]1O (stereo partly drawn) [Maltotriose, O-α-D-Glucosyl-(1→4)-α-D-glucosyl-(1→4)-D-glucose]	3.5 µmol/min/mg	6%	3.4 µmol/min/mg	6%	0 µmol/min/mg	3.4 µmol/min/mg	5%	–	–	–	relative activity, velocity on isomaltose set to 100 (Ima1p; listed as maltotriose): approx. 5%; relative activity, velocity on isomaltose set to 100 (Ima2p; listed as maltotriose): approx. 5%; relative activity, velocity on isomaltose set to 100 (Ima5p; listed as maltotriose): approx. 5%
OC[C@H]1O[C@H](O[C@@H]2[C@@H](CO)OC(O)(CO)[C@H]2O)[C@H](O)[C@@H](O)[C@@H]1O (stereo partly drawn) [Maltulose, O-α-D-Glucosyl-(1→4)-D-fructose]	0 µmol/min/mg	–	0.53 µmol/min/mg	1%	0 µmol/min/mg	0.36 µmol/min/mg	1%	–	–	–	–
OC[C@H]1O[C@@](CO)(O[C@H]2O[C@H](CO)[C@@H](O)[C@H](O)[C@H]2O)[C@@H](O[C@H]2O[C@H](CO)[C@@H](O)[C@H](O)[C@H]2O)[C@@H]1O [Melezitose, O-α-D-Glucosyl-(1→3)-β-D-fructosyl-(2→1)-D-glucose]	0 µmol/min/mg	–	0 µmol/min/mg	–	0 µmol/min/mg	0 µmol/min/mg	–	–	–	–	–
OC[C@H]1O[C@H](O[C@@H]2[C@@H](O)[C@@H](O)O[C@H](CO)[C@H]2O)[C@H](O)[C@@H](O)[C@@H]1O [Nigerose, O-α-D-Glucosyl-(1→3)-α-D-glucose]	6.5 µmol/min/mg	11%	6.8 µmol/min/mg	13%	2.5 µmol/min/mg	4.2 µmol/min/mg	6%	–	–	–	relative activity, velocity on isomaltose set to 100 (Ima3p): 35%
OC[C@H]1O[C@H](O[C@H]2O[C@H](CO)[C@@H](O)[C@H](O)[C@H]2O)[C@H](O)[C@@H](O)[C@@H]1O [Trehalose, O-α-D-Glucosyl-(1→1)-α-D-glucose]	0 µmol/min/mg	–	0 µmol/min/mg	–	0 µmol/min/mg	0 µmol/min/mg	–	–	–	–	–
O=C(CO)[C@@H](O[C@H]1O[C@H](CO)[C@@H](O)[C@H](O)[C@H]1O)[C@H](O)[C@H](O)CO [Turanose, O-α-D-Glucosyl-(1→3)-D-fructose]	4.3 µmol/min/mg	7%	3.5 µmol/min/mg	6%	1.8 µmol/min/mg	1.2 µmol/min/mg	2%	–	–	–	relative activity, velocity on isomaltose set to 100 (Ima3p): 25%
Ima2p: isomaltase from S. cerevisiae encoded by IMA2/YOL157C, His-tagged, purified (protein, UniProt Q08295 1-589, looked up, His tag) Oligo-1,6-glucosidase IMA2: MTISSAHPETEPKWWKEATIYQIYPASFKDSNNDGWGDMKGIASKLEYIKELGADAIWISPFYDSPQDDMGYDIANYEKVWPTYGTNEDCFALIEKTHKLGMKFITDLVINHCSSEHEWFKESRSSKTNPKRDWFFWRPPKGYDAEGKPIPPNNWRSYFGGSAWTFDEKTQEFYLRLFCSTQPDLNWENEDCRKAIYESAVGYWLDHGVDGFRIDVGSLYSKVAGLPDAPVIDENSKWQPSDPFTMNGPRIHEFHQEMNKFIRNRVKDGREIMTVGEMQHATDETKRLYTSASRHELSELFNFSHTDVGTSPKFRQNLIPYELKDWKVALAELFRYVNGTDCWSTIYLENHDQPRSITRFGDDSPKNRVISGKLLSVLLVSLSGTLYVYQGQELGEINFKNWPIEKYEDVEVRNNYDAIKEEHGENSKEMKRFLEAIALISRDHARTPMQWSREEPNAGFSGPNAKPWFYLNESFREGINAEDESKDPNSVLNFWKEALRFRKAHKDITVYGYDFEFIDLDNKKLFSFTKKYDNKTLFAALNFSSDSIDFTIPNNSSSFKLEFGNYPRSEVDASSRTLKPWEGRIYISE	–	–	–	–	–	–	–	27.4 ± 1.6 min	18.5 ± 1.6 min	46.2 ± 0.8 °C	t1/2 ([1]; 42 °C): 11.2 ± 0.7 min; Tm ([2]; pH 6, DSF): 55.1 ± 0.2 °C; decrease of Tm on increase by one pH unit (pH 8) [2]: 13 °C; Tm ([2]; pH 8, DSF): 33.2 ± 0.6 °C
Ima3p_L240P: Ima3p variant with L240P mutation (protein, UniProt P0CW40 1-589, looked up, variant L240P) Oligo-1,6-glucosidase IMA3: MTISSAHPETEPKWWKEATIYQIYPASFKDSNNDGWGDMKGIASKLEYIKELGTDAIWISPFYDSPQDDMGYDIANYEKVWPTYGTNEDCFALIEKTHKLGMKFITDLVINHCSSEHEWFKESRSSKTNPKRDWFFWRPPKGYDAEGKPIPPNNWRSYFGGSAWTFDEKTQEFYLRLFCSTQPDLNWENEDCRKAIYESAVGYWLDHGVDGFRIDVGSLYSKVAGLPDAPVIDENSKWQPSDPFTMNGPRIHEFHQEMNKFIRNRVKDGREIMTVGEMRHATDETKRLYTSASRHELSELFNFSHTDVGTSPKFRQNLIPYELKDWKVALAELFRYVNGTDCWSTIYLENHDQPRSITRFGDDSPKNRVISGKLLSVLLVSLSGTLYVYQGQELGEINFKNWPIEKYEDVEVRNNYDAIKEEHGENSKEMKRFLEAIALISRDHARTPMQWSREEPNAGFSGPNAKPWFYLNESFREGINAEDESKDPNSVLNFWKEALRFRKAHKDITVYGYDFEFIDLDNKKLFSFTKKYDNKTLFAALNFSSDSIDFTIPNNSSSFKLEFGNYPRSEVDASSRTLKPWEGRIYISE	–	–	–	–	–	–	–	26.5 ± 2.2 min	16.2 ± 1.8 min	39.7 °C and 39.7 ± 0.4 °C	t1/2 ([1]; 42 °C): 8.5 ± 1.3 min; increase of Tm relative to Ima3p ([2]; pH 7): 1 °C
Ima1p: isomaltase from S. cerevisiae encoded by IMA1/YGR287C, His-tagged, purified (protein, UniProt P53051 2-589, looked up, His tag) Oligo-1,6-glucosidase IMA1: TISSAHPETEPKWWKEATFYQIYPASFKDSNDDGWGDMKGIASKLEYIKELGADAIWISPFYDSPQDDMGYDIANYEKVWPTYGTNEDCFALIEKTHKLGMKFITDLVINHCSSEHEWFKESRSSKTNPKRDWFFWRPPKGYDAEGKPIPPNNWKSYFGGSAWTFDEKTQEFYLRLFCSTQPDLNWENEDCRKAIYESAVGYWLDHGVDGFRIDVGSLYSKVVGLPDAPVVDKNSTWQSSDPYTLNGPRIHEFHQEMNQFIRNRVKDGREIMTVGEMQHASDETKRLYTSASRHELSELFNFSHTDVGTSPLFRYNLVPFELKDWKIALAELFRYINGTDCWSTIYLENHDQPRSITRFGDDSPKNRVISGKLLSVLLSALTGTLYVYQGQELGQINFKNWPVEKYEDVEIRNNYNAIKEEHGENSEEMKKFLEAIALISRDHARTPMQWSREEPNAGFSGPSAKPWFYLNDSFREGINVEDEIKDPNSVLNFWKEALKFRKAHKDITVYGYDFEFIDLDNKKLFSFTKKYNNKTLFAALNFSSDATDFKIPNDDSSFKLEFGNYPKKEVDASSRTLKPWEGRIYISE	–	–	–	–	–	–	–	26.1 ± 1.7 min	17.6 ± 1.7 min	46.6 ± 0.7 °C	Tm ([2]; pH 6, DSF): 55.5 ± 0.6 °C; decrease of Tm on increase by one pH unit (pH 8) [2]: 5 °C; Tm ([2]; pH 8, DSF): 41.6 ± 0.2 °C
